In patent US9532982B2, “Pharmaceutical combination comprising a phosphatidylinositol 3-kinase inhibitor and/an aromatase inhibitor” (Novartis AG, priority 2012, dated 2017):

Key:
[1] = system: MCF7/Aro human breast carcinoma cells; assay: Δ4A induced MCF7/Aro cell proliferation (CellTiter-Glo), Compound A and letrozole, Example 2; type: cell-based; details: 10 nM Δ4A, 5 days, vs DMSO control
Experimental: (§1) Synergy is calculated by comparing a combination's response to those of its single agents, against the drug-with-itself dose-additive reference model.

[2] = system: MCF7/Aro human breast carcinoma cells; assay: Δ4A induced MCF7/Aro cell proliferation (CellTiter-Glo), Compound A and exemestane, Example 1; type: cell-based; details: 10 nM Δ4A, 5 days, vs DMSO control
Experimental: as §1

| Structure (SMILES) | maximum level inhibition of Δ4A-driven cell proliferation, single agent [1] [%] | maximum level inhibition of Δ4A-driven cell proliferation, single agent [2] [%] |
| --- | --- | --- |
| Cc1nc(NC(=O)N2CCC[C@H]2C(N)=O)sc1-c1ccnc(C(C)(C)C(F)(F)F)c1 [Compound A, (S)-Pyrrolidine-1,2-dicarboxylic acid 2-amide 1-({4-methyl-5-[2-(2,2,2-trifluoro-1,1-dimethyl-ethyl)-pyridin-4-yl]-thiazol-2-yl}-amide)] | 61 | 61 |
| C=C1C[C@@H]2[C@H](CC[C@]3(C)C(=O)CC[C@@H]23)[C@@]2(C)C=CC(=O)C=C12 [exemestane] | – | 33 |
| N#Cc1ccc(C(c2ccc(C#N)cc2)n2cncn2)cc1 [letrozole] | 53 | – |
